For 1 molecule, DES-sensitive estrogen binding and Kd results are on record in US20050074777A1, “Novel cell-surface estrogen receptor and related compositions and methods” (priority 2002, published 2005).

Assay [1] deals with estrogen-binding protein (ER-X). Description: DES-sensitive 3H-estradiol binding in CLM preparations and lysates. The arrangement: species or system mouse. On the procedure: Caveolar-like membrane (CLM) preparation. Membrane fractions were prepared by adapting the detergent-free method of Smart et al. (Smart, 1995). Briefly, pools of 40-50 P7 ERKO neocortices were homogenized in 20 mM Tricine, pH 7.8 buffer, containing 1 mM EDTA, 0.25M sucrose and 1 mM dithiothreitol (TESD buffer), then centrifuged at 1000×g at 4° C. for 10 minutes. The pellet was resuspended in TESD buffer, re-centrifuged, and the supernatants pooled. The combined supernatants were subjected to Percoll® gradient fractionation in the same buffer to isolate the plasma membrane fraction. In some binding experiments (indicated below), Percoll® purified plasma membranes were used without further fractionation. For preparation of CLMs, plasma-membranes were sonicated and further separated by centrifugation on a linear 20% to 10% OptiPrep (iodixanol) gradient (Nycomed Pharma AS, Oslo, Norway). Based upon their light buoyant density, CLMs were separated and purified from non-CLMs using two OptiPrep density gradients. […] Electrophoretically separated CLMs on PVDF membranes were probed with antibodies specific for ER-α ([…], UBI; MC20, Santa Cruz), ER-β (Zymed), flotillin (BD Transduction Labs) and other caveolar-resident proteins (PKC-α and PKC-γ, BD Transduction Labs) and non-caveolar-resident proteins (paxillin, BD Transduction Labs). Estrogen binding assay. Duplicate aliquots of 1 mg each of protein lysate from ERKO P7 neocortex or wild-type adult uterus were pre-cleared for 30 minutes using anti-rabbit-IgG-coated magnetic beads (Dynal AS). Pre-cleared protein lysates were immunoprecipitated with anti-ER-α antibodies (6F11, Novocastra; or MC20, Santa Cruz) at 4° C. overnight. […] NEN Life Sciences, Boston, Mass.) at 4° C. for 18 hours. The incubation was terminated by adsorption of the binding sites onto an equal volume of hydroxylapatite (HAP) slurry in TESD buffer. HAP pellets were washed four times with Tris-buffered saline containing 0.2% Tween-20 buffer and extracted with 1 ml absolute ethanol overnight at room temperature. The ethanol supernatants were transferred to liquid scintillation fluid (5 ml) and counted. Control tubes, used in assessing HAP adsorption of free steroid, contained HAP and the same buffer constituents, without addition of the membranes. Non-specific binding was assayed in the membranes using the same amount of radioactive ligand plus 200-fold molar excess of unlabeled diethylstilbestrol (DES) (Sigma-Aldrich). Specific binding was calculated by subtracting non-specific from total binding.

Assay [2] concerns the target ER-X (plasma-membrane estrogen binding site of P7 ERKO and wild-type neocortex). Description: 3H-estradiol saturation binding to Percoll-purified neocortical plasma-membranes. Set-up: species or system mouse. To be noted: Percoll-purified plasma-membranes from P7 ERKO and wild-type neocortex, 50 μg/tube, 18 hours at 4° C.; read-out: equilibrium dissociation constant, Kd. On the procedure:
Binding of ^3H estradiol to Percoll®-purified plasma-membranes from P7 ERKO and wild-type mouse neocortex. (a) Identical amounts of membrane protein (50 μg/tube) were incubated with varying concentrations of ^3H estradiol (0.3-8 nM) for 18 hours at 4° C. The reaction was terminated by addition of hydroxylapatite (HAP). The membranes and HAP were sedimented by centrifugation in a microfuge, and the pellet washed 4 times to remove free steroid. Radioactivity in the pellets was extracted with ethanol and counted. […] (b) Specificity of the binding site in Percoll®-purified membranes from P7 ERKO mouse neocortex. […] Bound ^3H estradiol was separated by sedimentation with HAP and counted at an efficiency of 50%. Data represent the number of bound counts (after subtraction of HAP-only blank control tubes, containing no membrane protein) expressed as the means +/-S.D. of triplicate determinations. The horizontal dashed line indicates the level of non-specific binding observed in the presence of 1 μM DES. Caveolar-like membrane (CLM) preparation. Membrane fractions were prepared by adapting the detergent-free method of Smart et al. (Smart, 1995). […] The ethanol supernatants were transferred to liquid scintillation fluid (5 ml) and counted. […] Specific binding was calculated by subtracting non-specific from total binding.

The structures appear in SMILES notation.

For `C[C@]12CC[C@@H]3c4ccc(O)cc4CC[C@H]3[C@@H]1CC[C@@H]2O` [^3H-estradiol, 2,4,6,7, 16, 17-^3H estradiol], the DES-sensitive estrogen binding came out at 9.94 fmol/mg lysate protein in assay [1] (P7 ERKO neocortical lysates); 282.12 fmol/mg CLM protein in assay [1] (neocortical CLM preparations from P7 ERKO mice, 10 nM 3H-estradiol); 38.85 fmol/mg lysate protein in assay [1] (wild-type adult uterine lysates). In addition, the Kd (as a rule, the free concentration of one partner at which half of the binding sites on the other are occupied at equilibrium, for simple one-to-one binding) in assay [2] is about 1.6 nM.
